This is an account of results in patent publication US6645957B2, “Cyclic amide compound” (Kowa Co., Ltd., priority 1998, dated 2003).

Counter-ions that a name gives are not always drawn.

The test system of this assay is production of IgE antibody. In words: Evaluation of inhibitory effect on production of IgE antibody (mouse splenic B cells, LPS + IL-4, ELISA). Format: cell-based. To be noted: B-cell, 168 h; test agent 10^−6 M; mouse (Balb/C) B cells cultured with LPS then mouse IL-4 for 7 days; IgE in culture supernatant by ELISA. How it is done: A spleen was enucleated from a mouse (Balb/C, male, aged 8 weeks) and shredded in 0.3% BSA/HBSS to prepare single cells by means of a 200-mesh screen. Further, the single cells were hemolyzed by 0.75% ammonium chloride-17 mM Tris solution to prepare a splenocyte suspension (1×10^7/ml) using RPMI 1640 medium/25 mM HEPES/0.3% BSA. After the suspension was reacted with a rat anti-mouse Thy-1,2 monoclonal antibody (product of Cedarlane Co.) at 4° C. for 1 hour, the reaction mixture was centrifuged, and the sediment cells were suspended again (1×10^7/ml, RPMI/HEPES/BSA). After the suspension was then reacted with a low-cytotoxic rabbit complement (product of Cedarlane Co.) at 37° C. for 1 hour, killed cells were removed by specific gravity centrifugation using lympholyte M (product of Cedarlane Co.) to obtain a B cell fraction as viable cells.
After B cells (10^5/0.2 ml/well) were cultured for a day together with LPS (E. coli 026:B6, product of DIFCO Co.) using a 96-well plate, mouse IL-4 (product of Genzyme Co.) was added to conduct culture further for 7 days.
Each test agent was added on the first day of the culture, and the amount of IgE in a culture supernatant was measured by ELISA after the culture, thereby calculating out the inhibitory effect of the agent on the production of an IgE antibody.
Consider `COc1cc(/C=C/C=C/C(=O)N2CCN(CCCN3CCN(C(=O)/C=C/C=C/c4cc(OC)c(OC)c(OC)c4)CC3)CC2)cc(OC)c1OC` [Example 3, 1,3-bis[4-[(E,E)-5-(3,4,5-Trimethoxyphenyl)-2,4-pentadienoyl]-1-piperazinyl]propane Dihydrochloride], for which the inhibition at 1 µM amounted to 100%.

In the case of `COc1cc(-c2ccc(C(=O)N3CCN(CCCN4CCN(C(=O)c5ccc(-c6cc(OC)c(OC)c(OC)c6)cc5)CC4)CC3)cc2)cc(OC)c1OC` [Example 5, 1,3-bis[4-[4-(3,4,5-Trimethoxyphenyl)-benzoyl]-1-piperazinyl]propane Dihydrochloride], the inhibition at 1 µM was found to be 95%.

As to `COc1cc(C#C/C=C/C(=O)N2CCN(CCCN3CCN(C(=O)/C=C/C#Cc4cc(OC)c(OC)c(OC)c4)CC3)CC2)cc(OC)c1OC` [Example 6, 1,3-bis[4-[(E)-5-(3,4,5-Trimethoxyphenyl)-2-penten-4-ynoyl]-1-piperazinyl]propane Dihydrochloride], the inhibition at 1 µM came to 95%.

Consider `CC(C)(C)c1ccc(/C=C/C=C/C(=O)N2CCN(CCCCCCCCN3CCN(C(=O)/C=C/C=C/c4ccc(C(C)(C)C)cc4)CC3)CC2)cc1` [Example 12, 1,8-bis[4-[(E,E)-5-(4-tert-Butylphenyl)-2,4-pentadienoyl]-1-piperazinyl]octane Dihydrochloride], for which the inhibition at 1 µM was 90%.

Regarding `CSc1ncccc1/C=C/C=C/C(=O)N1CCN(CCCCCCCCN2CCN(C(=O)/C=C/C=C/c3cccnc3SC)CC2)CC1` [Example 13, 1,8-bis[4-[(E,E)-5-(2-Methylthio-3-pyridyl)-2,4-pentadienoyl]-1-piperazinyl]octane Dihydrochloride], the inhibition at 1 µM turned out to be 95%.

For `COc1cc(-c2ccc(C(=O)N3CCN(Cc4ccc(CN5CCN(C(=O)c6ccc(-c7cc(OC)c(OC)c(OC)c7)cc6)CC5)cc4)CC3)cc2)cc(OC)c1OC` [Example 16, 1,4-bis[[4-[4-(3,4,5-Trimethoxyphenyl)benzoyl]-1-piperazinyl]methyl]benzene Dihydrochloride], the inhibition at 1 µM turned out to be 65%.

Take `O=C(/C=C/c1ccc2ccccc2c1)N1CCN(Cc2cccc(CN3CCN(C(=O)/C=C/c4ccc5ccccc5c4)CC3)n2)CC1` [Example 20, 2,6-bis[[4-[(E)-3-(2-Naphthyl)-2-propenoyl]-1-piperazinyl]methyl]pyridine]: the inhibition at 1 µM turned out to be 75%.

In the case of `COc1cc(-c2ccc(C(=O)N3CCCN(CCCN4CCCN(C(=O)c5ccc(-c6cc(OC)c(OC)c(OC)c6)cc5)CC4)CC3)cc2)cc(OC)c1OC` [Example 23, 1,1′-Trimethylenedi[4-[4-(3,4,5-trimethoxyphenyl)benzoyl]hexahydro-1,4-diazepine]dihydrochloride], the inhibition at 1 µM was 85%.

With `COc1cc2c(cc1OC)C(C)(C)C(/C=C/C(=O)N1CCC(CCCC3CCN(C(=O)/C=C/C4=Cc5cc(OC)c(OC)cc5C4(C)C)CC3)CC1)=C2` [Example 27, 1,3-bis[1-[(E)-3-(5,6-Dimethoxy-1,1-dimethyl-2-indenyl)-2-propenoyl]-4-piperidinyl]propane], the inhibition at 1 µM stood at 100%.

In the case of `COc1cc(-c2cc(C(=O)N3CCC(CC(CC4CCN(C(=O)c5ccc(C)c(-c6cc(OC)c(OC)c(OC)c6)c5)CC4)N(C)C)CC3)ccc2C)cc(OC)c1OC` [Example 30, 1,3-bis[1-[4-Methyl-3-(3,4,5-trimethoxyphenyl)benzoyl]-4-piperidinyl]-2-(dimethylamino)propane Hydrochloride], the inhibition at 1 µM was 100%.

Take `COc1cc(C#C/C=C/C(=O)N2CCC(CC(CC3CCN(C(=O)/C=C/C#Cc4cc(OC)c(OC)c(OC)c4)CC3)CN(C)C)CC2)cc(OC)c1OC` [Example 33, 1,3-bis[1-[(E)-5-(3,4,5-Trimethoxyphenyl)-2-penten-4-ynoyl]-4-piperidinyl]-2-[(dimethylamino)methyl]propane Hydrochloride]: the inhibition at 1 µM came to 100%.

Turning to `COc1cc2ccc(/C=C/C(=O)N3CCC(CN(C)CC4CCN(C(=O)/C=C/c5ccc6cc(OC)c(OC)c(OC)c6c5)CC4)CC3)cc2c(OC)c1OC` [Example 36, N,N-bis[[1-[(E)-3-(6,7,8-Trimethoxy-2-naphthyl)-2-propenoyl]-4-piperidinyl]methyl]methylamine Hydrochloride], the inhibition at 1 µM was determined as 60%.

Take `COc1cc(-c2ccc(C(=O)N3CCC(N(C)CCN(C)C4CCN(C(=O)c5ccc(-c6cc(OC)c(OC)c(OC)c6)cc5)CC4)CC3)cc2)cc(OC)c1OC` [Example 37, N,N′-bis[1-[4-(3,4,5-Trimethoxyphenyl)benzoyl]-4-piperidinyl]-N,N′-dimethylethylenediamine Dihydrochloride]: the inhibition at 1 µM is 100%.

As to `COc1ccc(C(=O)N2CCC(CN3CCN(CC4CCN(C(=O)c5ccc(OC)c(-c6cc(OC)c(OC)c(OC)c6)c5)CC4)CC3)CC2)cc1-c1cc(OC)c(OC)c(OC)c1` [Example 40, 1,4-bis[[1-[4-Methoxy-3-(3,4,5-trimethoxyphenyl)benzoyl]-4-piperidinyl]methyl]piperazine Dihydrochloride], the inhibition at 1 µM amounted to 75%.
